Each block holds one compound with its values, some of them ahead of it.
Columns and labels:
[1] = tested on: THP-1 cells (TNFα secretion on human IgG-coated plate); experiment: TNFα generation assay; type: cell-based; details: IFN-γ differentiated THP-1 cells, 7 hours, AlphaLISA, read-out: IC50 of TNFα generation inhibitory activity
Procedure, shortened: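 THP-1 cells were differentiated with 10 ng/ml IFN-γ for 2 days, then preincubated with compound for 30 min at room temperature. They were then plated at 5×10^4 cells/well on plates coated with human IgG (10 μg/ml). TNFα secreted over 7 h of culture was quantified by AlphaLISA.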

[2] = target: T1, glutathione S-transferase (GST)-linked full-length human Syk protein (Homo sapiens, UniProt P43405); experiment: Syk enzyme assay; type: biochemical; details: 0.83 nM Syk, time-resolved fluorescence; read-out: IC50 of Syk-inhibitory activity
T1 construct: glutathione S-transferase (GST)-linked full-length human Syk protein; purchased Carna Biosciences; host or cells: Baculovirus expression system
Procedure, shortened: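 Phosphotyrosine on a biotin-peptide substrate (0.5 μM) was read by time-resolved fluorescence at 615 and 665 nm with Eu-anti-pTyr antibody and APC-streptavidin after 1 h EDTA stop.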

Compound: COc1nn(C)c2ncc(Nc3nc(N[C@@H]4CCOC[C@@H]4N)c(F)cc3C(N)=O)cc12 [Example 2-334, 6-(((3R,4R)-3-aminotetrahydro-2H-pyran-4-yl)amino)-5-fluoro-2-((3-methoxy-1-methyl-1H-pyrazolo[3,4-b]pyridin-5-yl)amino)nicotinamide]
IC50 [1]: 130 to 200 nM | IC50 [2]: < 10 nM

Compound: CC[C@H](N)[C@H](Nc1nc(Nc2cncc(-n3cccn3)c2)c(C(N)=O)cc1F)C1CC1 [Example 2-366, 2-((5-(1H-pyrazol-1-yl)pyridin-3-yl)amino)-6-(((1R,2S)-2-amino-1-cyclopropylbutyl)amino)-5-fluoronicotinamide]
IC50 [1]: 130 to 200 nM | IC50 [2]: 10 to 50 nM

Compound: CCn1ncc2c(Nc3nc(N[C@@H]4CCOC[C@@H]4N)c(F)cc3C(N)=O)cc(F)cc21 [Example 2-370, 6-(((3R,4R)-3-aminotetrahydro-2H-pyran-4-yl)amino)-2-((1-ethyl-6-fluoro-1H-indazol-4-yl)amino)-5-fluoronicotinamide]
IC50 [1]: 130 to 200 nM | IC50 [2]: < 10 nM

Compound: CCn1ncc2c(Nc3nc(N[C@H](C4CC4)[C@H](C)N)c(F)cc3C(N)=O)cc(F)cc21 [Example 2-372, 6-(((1R,2S)-2-amino-1-cyclopropylpropyl)amino)-2-((1-ethyl-6-fluoro-1H-indazol-4-yl)amino)-5-fluoronicotinamide]
IC50 [1]: 130 to 200 nM | IC50 [2]: < 10 nM

Compound: COCCn1ncc2c(Nc3nc(N[C@@H]4CCCC[C@@H]4N)c(F)cc3C(N)=O)cc(F)cc21 [Example 2-374, 6-(((1R,2S)-2-aminocyclohexyl)amino)-5-fluoro-2-((6-fluoro-1-(2-methoxyethyl)-1H-indazol-4-yl)amino)nicotinamide]
IC50 [1]: 130 to 200 nM | IC50 [2]: < 10 nM

Compound: CCn1ncc2cc(Nc3nc(N[C@H](c4cccc(F)c4)[C@H](C)N)c(F)cc3C(N)=O)ccc21 [Example 2-413]
IC50 [1]: 65 to 130 nM | IC50 [2]: < 10 nM

Compound: COc1cc(Nc2nc(N[C@H](c3cccc(F)c3)[C@H](C)N)c(F)cc2C(N)=O)cc(OC)n1 [Example 2-414]
IC50 [1]: 65 to 130 nM | IC50 [2]: < 10 nM

Compound: Cn1nc(N2CCCC2)c2cc(Nc3nc(N[C@@H]4CCCC[C@@H]4N)c(F)cc3C(N)=O)ccc21 [Example 2-428, 6-(((1R,2S)-2-aminocyclohexyl)amino)-5-fluoro-2-((1-methyl-3-(pyrrolidin-1-1)-1H-indazol-5-yl)amino)nicotinamide]
IC50 [1]: 130 to 200 nM | IC50 [2]: 10 to 50 nM

Compound: Cc1cccc(Nc2nc(N[C@@H]3CCCC[C@@H]3N)c(F)cc2C(N)=O)c1 [Example 2-434, 6-(((1R,2S)-2-aminocyclohexyl)amino)-5-fluoro-2-(m-tolylamino)nicotinamide]
IC50 [1]: 65 to 130 nM | IC50 [2]: < 10 nM

Compound: Cc1ccc(Nc2nc(N[C@@H]3CCCC[C@@H]3N)c(F)cc2C(N)=O)cc1C [Example 2-436, 6-(((1R,2S)-2-aminocyclohexyl)amino)-2-((3,4-dimethylphenyl)amino)-5-fluoronicotinamide]
IC50 [1]: 130 to 200 nM | IC50 [2]: < 10 nM

Compound: NC(=O)c1cc(F)c(N[C@@H]2CCCC[C@@H]2N)nc1Nc1cccc(-n2nccn2)c1 [Example 2-437, 2-((3-(2H-1,2,3-triazol-2-yl)phenyl)amino)-6-(((1R,2S)-2-aminocyclohexyl)amino)-5-fluoronicotinamide]
IC50 [1]: 65 to 130 nM | IC50 [2]: < 10 nM

Compound: NC(=O)c1cc(F)c(N[C@@H]2CCCC[C@@H]2N)nc1Nc1cccc(Cl)c1 [Example 2-439, 6-(((1R,2S)-2-aminocyclohexyl)amino)-2-((3-chlorophenyl)amino)-5-fluoronicotinamide]
IC50 [1]: 65 to 130 nM | IC50 [2]: < 10 nM

Compound: NC(=O)c1cc(F)c(N[C@@H]2CCCC[C@@H]2N)nc1Nc1cccc(F)c1 [Example 2-440, 6-(((1R,2S)-2-aminocyclohexyl)amino)-5-fluoro-2-((3-fluorophenyl)amino) nicotinamide]
IC50 [1]: 130 to 200 nM | IC50 [2]: < 10 nM

Compound: NC(=O)c1cc(F)c(N[C@@H]2CCCC[C@@H]2N)nc1Nc1ccc(F)cc1 [Example 2-441, 6-(((1R,2S)-2-aminocyclohexyl)amino)-5-fluoro-2-((4-fluorophenyl)amino) nicotinamide]
IC50 [1]: 130 to 200 nM | IC50 [2]: < 10 nM

Compound: CC(=O)c1cccc(Nc2nc(N[C@@H]3CCCC[C@@H]3N)c(F)cc2C(N)=O)c1 [Example 2-442, 2-((3-acetylphenyl)amino)-6-(((1R,2S)-2-aminocyclohexyl)amino)-5-fluoronicotinamide]
IC50 [1]: 65 to 130 nM | IC50 [2]: < 10 nM

Compound: COCCn1ncc2cc(Nc3nc(N[C@H](c4cccc(F)c4)[C@H](C)N)c(F)cc3C(N)=O)ccc21 [Example 2-454, 6-(((1R,2S)-2-amino-1-(3-fluorophenyl)propyl)amino)-5-fluoro-2-((1-(2-methoxyethyl)-1H-indazol-5-yl)amino)nicotinamide]
IC50 [1]: 65 to 130 nM | IC50 [2]: < 10 nM

The next lines start with the values.

IC50 [1]: 65 to 130 nM | IC50 [2]: < 10 nM
Compound: CC[C@H](N)[C@H](Nc1nc(Nc2ccc3c(cnn3CC)c2)c(C(N)=O)cc1F)C1CC1 [Example 2-362]

IC50 [1]: 65 to 130 nM | IC50 [2]: < 10 nM
Compound: COCCn1ncc2c(Nc3nc(N[C@H](C4CC4)[C@H](C)N)c(F)cc3C(N)=O)cc(F)cc21 [Example 2-377, 6-(((1R,2S)-2-amino-1-cyclopropylpropyl)amino)-5-fluoro-2-((6-fluoro-1-(2-methoxyethyl)-1H-indazol-4-yl)amino)nicotinamide]

IC50 [1]: 65 to 130 nM | IC50 [2]: < 10 nM
Compound: CC[C@H](N)[C@@H](C)Nc1nc(Nc2cc(F)cc3c2cnn3CCOC)c(C(N)=O)cc1F [Example 2-378, 6-(((2R,3S)-3-aminopentan-2-yl)amino)-5-fluoro-2-((6-fluoro-1-(2-methoxyethyl)-1H-indazol-4-yl)amino)nicotinamide]

IC50 [1]: 65 to 130 nM | IC50 [2]: < 10 nM
Compound: CCn1ncc2cc(Nc3nc(N[C@H](c4ccccn4)[C@H](C)N)c(F)cc3C(N)=O)ccc21 [Example 2-381]

IC50 [1]: 65 to 130 nM | IC50 [2]: < 10 nM
Compound: C[C@H](N)[C@H](Nc1nc(Nc2cccc3ncccc23)c(C(N)=O)cc1F)C1CC1 [Example 2-404, 6-(((1R,2S)-2-amino-1-cyclopropylpropyl)amino)-5-fluoro-2-(quinolin-5-ylamino)nicotinamide]

IC50 [1]: 65 to 130 nM | IC50 [2]: < 10 nM
Compound: CCn1ncc2cc(Nc3nc(N[C@H](c4ccccc4F)[C@H](C)N)c(F)cc3C(N)=O)ccc21 [Example 2-410, 6-(((1R,2S)-2-amino-1-(2-fluorophenyl)propyl)amino)-2-((1-ethyl-1H-indazol-5-yl)amino)-5-fluoronicotinamide]

IC50 [1]: < 65 nM | IC50 [2]: < 10 nM
Compound: CCn1ncc2cc(Nc3nc(N[C@H](c4cccs4)[C@H](C)N)c(F)cc3C(N)=O)ccc21 [Example 2-416]

IC50 [1]: < 65 nM | IC50 [2]: < 10 nM
Compound: NC(=O)c1cc(F)c(N[C@@H]2CCCC[C@@H]2N)nc1Nc1cccc(-n2ccnn2)c1 [Example 2-438, 2-((3-(1H-1,2,3-triazol-1-yl)phenyl)amino)-6-(((1R,2S)-2-aminocyclohexyl)amino)-5-fluoronicotinamide]

IC50 [1]: < 65 nM | IC50 [2]: < 10 nM
Compound: Cc1cnn(-c2cncc(Nc3nc(N[C@@H]4CCCC[C@@H]4N)c(F)cc3C(N)=O)c2)c1 [Example 2-472, 6-(((1R,2S)-2-aminocyclohexyl)amino)-5-fluoro-2-((5-(4-methyl-1H-pyrazol-1-yl)pyridin-3-yl)amino)nicotinamide]

Reference: patent US9051310B2, “Nicotinamide derivative or salt thereof” (FUJIFILM Corporation, priority 2011, dated 2015)
